Measurements published in patent US5238962A, “Benzamide derivatives” (Hoffmann-La Roche Inc., priority 1983, dated 1993).

Columns and labels:
monoamine oxidase (MAO) = target: T1, monoamine oxidase (MAO) (Rattus norvegicus, UniProt P19643); assay: MAO inhibiting activity in homogenates of brain and liver of rats after oral administration (phenethylamine as substrate); assay type: in vivo; conditions: 2 h, p.o. in rats, killed two hours after administration, homogenates of the brain and the liver, phenethylamine 2.10^-5 mol.1^-1 as substrate
T1 construct: from tissue; host or cells: rat brain and liver homogenates
T1 sequence (P19643 1-520): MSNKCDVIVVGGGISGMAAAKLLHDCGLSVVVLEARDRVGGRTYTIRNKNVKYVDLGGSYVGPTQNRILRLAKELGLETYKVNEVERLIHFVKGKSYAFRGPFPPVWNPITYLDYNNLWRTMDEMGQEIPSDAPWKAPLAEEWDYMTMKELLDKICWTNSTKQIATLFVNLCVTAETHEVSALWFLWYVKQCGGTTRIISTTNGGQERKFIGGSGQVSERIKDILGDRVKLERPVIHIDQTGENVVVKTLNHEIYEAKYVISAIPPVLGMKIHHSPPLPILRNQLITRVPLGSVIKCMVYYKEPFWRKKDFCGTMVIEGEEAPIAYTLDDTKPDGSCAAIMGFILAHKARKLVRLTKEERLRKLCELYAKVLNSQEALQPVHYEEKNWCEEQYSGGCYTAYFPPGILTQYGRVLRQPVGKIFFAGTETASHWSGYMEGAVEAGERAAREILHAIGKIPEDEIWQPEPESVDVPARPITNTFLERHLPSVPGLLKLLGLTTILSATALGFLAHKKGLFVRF
Description: The MAO inhibiting activity of the compounds of formula I and their pharmaceutically acceptable addition salts can be determined using standard methods. Thus, the substances to be tested were administered orally to rats. Two hours thereafter the animals were killed and the MAO inhibiting activity was measured in homogenates of the brain and the liver according to the method described in Biochem. Pharmacol. 12 (1963) 1439-1441, but using phenethylamine (2.10^-5 mol. 1^-1) in place of tyramine as the substrate.

[1] = toxicity (LD50, p.o. in mice); conditions: mouse, in vivo, po

| Structure (SMILES) | ED50 (monoamine oxidase (MAO)) [µmol/kg] | LD50 [1] [mg/kg] |
| --- | --- | --- |
| NCCNC(=O)c1ccc(Cl)cc1Cl [N-(2-Aminoethyl)-2,4-dichlorobenzamide, N-(2-aminoethyl)-2,4-dichlorobenzamide] | 1.5 | 625 to 1250 |
| NCCNC(=O)c1ccc(Cl)c(Cl)c1 [N-(2-Aminoethyl)-3,4-dichlorobenzamide, N-(2-aminoethyl)-3,4-dichlorobenzamide] | 10.3 | 1000 to 2000 |
| NCCNC(=O)c1ccc(Br)cc1 [N-(2-Aminoethyl)-p-bromobenzamide] | 4 | 500 to 1000 |
| NCCNC(=O)c1ccc(Cl)cc1 [N-(2-Aminoethyl)-p-chlorobenzamide] |  | 1000 to 2000 |
| NCCNC(=O)c1ccc(F)cc1 [N-(2-Aminoethyl)-p-fluorobenzamide] | 4 | > 5000 |
| NCCNC(=O)c1ccccc1 [N-(2-Aminoethyl)benzamide] | 20 | > 5000 |
